The source made the active and inactive calls.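 How the source made its calls: active means compounds giving half or more protection of infected cells from virus-caused growth loss, again on retest; inactive means the rest.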
System: CEM cells HIV-1 protection, formazan growth assay
Assay: NCI AIDS Antiviral Assay
Conditions: for IC50: measured here: growth of uninfected CEM cells
How it was run: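 CEM (human) cells, HIV-1 infected vs uninfected, 5-point dosing, formazan growth read-out. Retest threshold 50% protection.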

Compound | EC50 [µM] | IC50 [µM] | outcome
COc1ccc(C2=C(Cl)c3cc(OC)c(OC)cc3C2=O)cc1OC | > 200 | 1.45 | –
c1ccc2c(c1)C1CCC2c2ccccc21 | > 200 | > 200 | –
Cc1cc(N(CCC#N)CCC#N)ccc1N=Nc1cccc(Cl)c1 | > 7.76 | > 7.76 | –
C[PH+](C)CC[PH+](CC[PH+](c1ccccc1)c1ccccc1)c1ccccc1.[C-]#[O+].[C-]#[O+].[C-]#[O+].[Mo] (centres undefined) | – | – | inactive
CC(C)(C)c1cc(C2c3cc4c(cc3OC(O)(CO)C2C(=O)O)OCO4)cc(C(C)(C)C)c1O (centres undefined) (tested in a mixture with another compound) | – | – | inactive
COc1ccc2c(c1)nc1n2C(N)=Nc2ccccc2S1 | > 200 | 11.5 | –
Clc1ccc(C2SCc3nc4ccccc4n32)c(Cl)c1 (centres undefined) | – | – | inactive
Cc1cc2c(O)c(c1)CN(Cc1ccccc1)Cc1cc(C)cc(c1O)CN(Cc1ccccc1)Cc1cc(C)cc(c1O)CN(Cc1ccccc1)C2 | > 50.1 | > 50.1 | –
Cc1cn(C2CC(NO)C(CO[Si](C)(C)C(C)(C)C)O2)c(=O)[nH]c1=O (centres undefined) | > 200 | 126 | –
Nc1nnc2c(-c3ccccc3)[nH]nc2n1 | – | – | inactive
CCC1Sc2cc(OC)cc(N)c2NC1=O (centres undefined) | > 200 | > 200 | –
O=C1c2ccc3cc(CCl)cc(O)c3c2C(=O)c2cccc(O)c21 | > 200 | 5.25 | –
O=S(=O)(O)CC(O)CNC(CO)(CO)CO (centres undefined) | > 200 | > 200 | –
O=C1ON=C2C3CC4CC12CC1(C3)C(=O)ON=C41 | > 200 | > 200 | –
Cn1cc(NC(=O)c2nc(NC(=O)c3nc(NC(=O)c4ccc(C(=O)Nc5cn(C)c(C(=O)Nc6cn(C)c(C(=O)Nc7cn(C)c(C(=O)NCCC(=N)N)n7)n6)n5)cc4)cn3C)cn2C)nc1C(=O)NCCC(=N)N | > 12.9 | 2.34 | –
CC1CN1C(=O)NCCCCCCNC(=O)N1CC1C (centres undefined) | > 200 | 4.79 | –
CC/C(=N/OC(=O)N(CC)CC)c1ccccc1 | > 200 | 117 | –
COc1cc2[nH]c3c(c2cc1OC)CCN[C@@]31CC[C@@]2(CC3c4c(cc(OC)c(O)c42)CCN3C)C[C@@H]1OC (some centres undefined) | – | – | inactive
O=C(O)c1cc(O)c2c(c1)C([C@@H]1c3cccc(O)c3C(=O)c3c(O)cc(C(=O)O)cc31)c1cccc(O)c1C2=O (some centres undefined) | > 200 | 31.6 | –
Cn1c2ccccc2n2c3ncccc3c(=O)c(C#N)c12 | > 50.1 | 1.26 | –
CC(=O)Nc1ccc(C(=O)NN2C(=O)C(Cl)C2c2ccc([N+](=O)[O-])cc2)cc1 (centres undefined) | > 200 | 112 | –
COc1cccc2c1N(COC(C)=O)C(=O)C1C=CC(C)(C)OC21 (centres undefined) | > 100 | 56.2 | –
Oc1ccc2ccccc2c1CNCc1c(O)ccc2ccccc12 | > 21.9 | > 21.9 | –
CCC(C)NC1=NCC(C)S1 (centres undefined) | > 200 | > 200 | –
CO[C@@]12[C@@H]3N[C@@H]3CN1C1=C(C(=O)C(N3CCOCC3)=C(C)C1=O)[C@@H]2COC(N)=O | > 200 | > 200 | –
O=[N+]([O-])c1ccc([As](=O)(O)O)c2ccccc12 | > 200 | > 200 | –
O=C1NC(Nc2ccccc2)=NC(C(F)(F)F)(C(F)(F)F)N1 | > 200 | 36.3 | –
CC1OC(c2ccc3c(c2O)C(=O)C2=C(C3=O)[C@H]3OC(=O)C[C@H]3O[C@@H]2C)CC(N(C)C)C1O (some centres undefined) | > 107 | 0.0537 | –

Compound | EC50 [µM] | IC50 [µM] | outcome
O=C1CCC2(c3ccc(Cl)cc3)Nc3ncncc3N12 (centres undefined) | > 871 | 178 | –
CCOC(=O)C(=Cc1cccc(F)c1)C(=O)OCC | > 355 | 22.4 | –
N#Cc1cnc(N)nc1NCC1(CO)CC(CCc2ccccc2)C1 (centres undefined) | > 200 | 7.24 | –
COc1ccc2nc3ccc(OC)cc3c(S(=O)Cc3ccc([N+](=O)[O-])cc3)c2c1 (centres undefined) | > 200 | 3.24 | –
CN(CCO)CCC1COc2ccccc2O1 (centres undefined) | – | – | inactive
Cc1cc(Cl)ccc1NC(=O)CCCC(=O)C(C(=O)c1ccccc1)c1ccccc1 (centres undefined) | – | – | inactive
CC(=O)OCCn1cnc2nc(Nc3ccccc3)nc(Cl)c21 | > 200 | 70.8 | –
COC[C@@H](N=Cc1ccc([N+](=O)[O-])cc1)C(C)C | > 200 | 67.6 | –
O=C(Nc1ccc(Cl)c(Cl)c1)C(=O)Nn1c(=S)[nH]c2ccccc2c1=O | > 437 | 257 | –
c1ccc2c(c1)CCN2CCc1c[nH]c2ccccc12 | > 200 | 178 | –
CC(=O)NC1C(OCc2ccccc2)OC(CO)C(O)C1OCC(=O)N1CCCC1C(=O)NC(CCC(=O)NCCCCCNc1c2ccccc2nc2cccc([N+](=O)[O-])c12)C(N)=O (centres undefined) | > 200 | 0.209 | –
O=C(Nc1nc2ncn(CCI)c2c(=O)[nH]1)c1ccccc1 | > 63.1 | > 63.1 | –
O=Nc1ccccc1C(=O)O | > 151 | 47.9 | –
CC(=O)N1CCCCCC1=O | > 1620 | > 1620 | –
C=C(CCCCCOCOCCOC)[Si](C)(C)C | > 26.3 | > 26.3 | –
COc1ccc(C2SCC(=O)N2c2ccc(-c3ccc(-n4c(-c5ccccc5)nc5ccccc5c4=O)cc3)cc2)cc1 (centres undefined) | > 200 | 33.9 | –
CN1C(=O)N(C)C(O)C(Cl)(Br)C1=O (centres undefined) | > 200 | > 200 | –
Cc1cc(=O)n(-c2cc3cccccc-3n2)[nH]1 | – | – | inactive
O=c1oc2ccccc2n1Cc1ccc(Cl)cc1 | > 200 | 79.4 | –
O=[N+]([O-])/C(C(Cl)=C(Cl)Cl)=C(/Nc1ccccc1)SCc1ccccc1 | > 200 | 38 | –
Cc1cc(S(=O)(=O)NC2=NCCN2Cc2ccccc2)c(S)cc1Cl | > 200 | 58.9 | –
Brc1c(C(Br)Br)ccc2ccccc12 | > 200 | 23.4 | –
C[Si](C)(C)O[C@@H]1CCCC1NCC#N (some centres undefined) | – | – | inactive
CN1CC[C@@H](O)[C@@H](CNC23CC4CC(CC(C4)C2)C3)C1 | – | – | inactive
Cc1ccc2c(c1)P1c3cc(C)ccc3SP1S2 (centres undefined) | > 12.3 | > 12.3 | –
O=C1/C(=C/c2ccccc2)CN(C(=O)C(F)(F)F)C/C1=C\c1ccccc1 | – | – | inactive
CC1C(=O)OC2CCC3(C)C(=O)OC4OC5(c6ccoc6)CC1(O)C2(C)C43O5 (centres undefined) | > 200 | > 200 | –

— PubChem BioAssay AID179 (DTP/NCI, 2004)
